Values of other authors as cited in US20200237731A1, “USE OF CLOXACILLIN TO INHIBIT/PREVENT BIOFILM FORMATION” (priority 2017, published 2020).

Experiments:
[1] = test system: S. aureus strain USA 300; conditions: sub-MIC doses; Mlynek et al., 2016; cited from earlier work
[2] = test system: biofilm forming Staphylococcus aureus; conditions: compounds tested individually; Singh and Mishra, 2012; cited from earlier work
[3] = test system: Clostridium difficile; conditions: Vuotto et al., 2016; cited from earlier work
[4] = test system: S. aureus; conditions: sub-MIC doses; Mirani et al., 2011; cited from earlier work
[5] = test system: clinical isolates of S. aureus; conditions: in vitro; Tunney et al., 2007; cited from earlier work

Molecule: CC1(C)S[C@@H]2[C@H](NC(=O)[C@H](N)c3ccc(O)cc3)C(=O)N2[C@H]1C(=O)O [amoxicillin]
- attachment of S. aureus strain USA 300 [1]: induces attachment

Molecule: CC1(C)S[C@@H]2[C@H](NC(=O)[C@H](N)c3ccccc3)C(=O)N2[C@H]1C(=O)O [ampicillin]
- preventive action against biofilm formation [2]: not sufficiently active

Molecule: Cc1ncc([N+](=O)[O-])n1CCO [metronidazole]
- biofilm formation by Clostridium difficile [3]: increases biofilm formation

Molecule: Cc1onc(-c2ccccc2)c1C(=O)N[C@@H]1C(=O)N2[C@@H]1SC(C)(C)[C@@H]2C(=O)O [oxacillin]
- biofilm formation by S. aureus [4]: induces biofilm formation

Molecule: CN[C@H](CC(C)C)C(=O)N[C@H]1C(=O)N[C@@H](CC(N)=O)C(=O)N[C@H]2C(=O)N[C@H]3C(=O)N[C@H](C(=O)N[C@H](C(=O)O)c4cc(O)cc(O)c4-c4cc3ccc4O)[C@H](O)c3ccc(c(Cl)c3)Oc3cc2cc(c3O[C@@H]2O[C@H](CO)[C@@H](O)[C@H](O)[C@H]2O[C@H]2C[C@](C)(N)[C@H](O)[C@H](C)O2)Oc2ccc(cc2Cl)[C@H]1O [vancomycin]
- biofilm formation by S. aureus [4]: induces biofilm formation

Molecule: gentamicin
- effect of treatment of bone cement on biofilm formation [5]: ineffectiveness

Molecule: penicillin
- preventive action against biofilm formation [2]: not sufficiently active
